Assays:
Type in all cases: in vivo
[1] = test system: green peach aphid (Myzus persicae); assay: Test 2 green peach aphid, artificial diet (mixtures)
Description: (§1) For evaluating control of green peach aphid (Myzus persicae) through systemic means the test unit consisted of 96-well-microtiter plates containing liquid artificial diet under an artificial membrane.
(§2) The compounds or mixtures were formulated using a solution containing 75% water and 25% DMSO. Concentrations of formulated compounds or mixtures were pipetted into the aphid diet, using a custom built pipetter, at two replications.
(§3) For experimental mixtures in these tests identical volumes of both mixing partners at the desired concentrations respectively, were mixed together.
(§4) After application, 5-8 adult aphids were placed on the artificial membrane inside the microtiter plate wells. The aphids were then allowed to suck on the treated aphid diet and incubated at 23±1° C., 50±5% RH for 3 days. Aphid mortality and fecundity was then visually assessed.

[2] = test system: tobacco budworm (Heliothis virescens); assay: Test 4 tobacco budworm, insect diet with eggs (mixtures)
Method: (§5) For evaluating control of tobacco budworm (Heliothis virescens) the test unit consisted of 96-well-microtiter plates containing an insect diet and 15-25 H. virescens eggs.
The compounds or mixtures were formulated using a solution containing 75% water and 25% DMSO. Concentrations of formulated compounds or mixtures were sprayed onto the insect diet at 10 μl, using a custom built micro atomizer, at two replications.
as §3
(§6) After application, microtiter plates were incubated at 28±1° C., 80±5% RH for 5 days. Egg and larval mortality was then visually assessed.

[3] = test system: Greenhouse Whitefly (Trialeurodes vaporariorum); assay: Test 11 Greenhouse Whitefly, egg plant leaf disk (mixtures); settings: use rate 2500 ppm
Method: For evaluating control of Greenhouse Whitefly (Trialeurodes vaporariorum) the test unit consisted of 96-well-microtiter plates containing a leaf disk of egg plant leaf disk with white fly eggs.
The compounds or mixtures were formulated using a solution containing 75% water and 25% DMSO. Different concentrations of formulated compounds or mixtures were sprayed onto the insect diet at 2.5 μl, using a custom built micro atomizer, at two replications.
as §3
After application, microtiter plates were incubated at 23±1° C., 65±5% RH for 6 days. Mortality of hatched crawlers was then visually assessed.

[4] = test system: green peach aphid (Myzus persicae); assay: Test 8 green peach aphid, artificial diet (mixtures)
Description: as §1, §2, §3, §4

[5] = test system: boll weevil (Anthonomus grandis); assay: Test 3 boll weevil, insect diet with eggs (mixtures)
Method: (§7) For evaluating control of boll weevil (Anthonomus grandis) the test unit consisted of 24-well-microtiter plates containing an insect diet and 20-30 A. grandis eggs.
(§8) The compounds or mixtures were formulated using a solution containing 75% water and 25% DMSO. Concentrations of formulated compounds or mixtures were sprayed onto the insect diet at 20 μl, using a custom built micro atomizer, at two replications.
as §3
(§9) After application, microtiter plates were incubated at 23±1° C., 50±5% RH for 5 days. Egg and larval mortality was then visually assessed.

[6] = test system: vetch aphid (Megoura viciae); assay: Test 7 vetch aphid, leaf disks (mixtures); settings: use rate 2500 ppm
Method: For evaluating control of vetch aphid (Megoura viciae) through contact or systemic means the test unit consisted of 24-well-microtiter plates containing broad bean leaf disks.
The compounds or mixtures were formulated using a solution containing 75% water and 25% DMSO. Concentrations of formulated compounds or mixtures were sprayed onto the leaf disks at 2.5 μl, using a custom built micro atomizer, at two replications.
as §3
After application, the leaf disks were air-dried and 5-8 adult aphids placed on the leaf disks inside the microtiter plate wells. The aphids were then allowed to suck on the treated leaf disks and incubated at 23±1° C., 50±5% RH for 5 days. Aphid mortality and fecundity was then visually assessed.

[7] = test system: Cowpea aphid (Aphis craccivora); assay: B.3 Cowpea aphid leaf disk test; settings: foliar, 120 h, Cowpea aphid, Dose 1 ppm, 5 days, read-out: Mortality %
Method: If not otherwise specified, the test solutions are prepared as follows:
The active compound is dissolved at the desired concentration in a mixture of 1:1 (vol:vol) distilled water: acetone. The test solution is prepared at the day of use.
B.3 Cowpea aphid (Aphis craccivora):
For evaluating control of Cowpea aphid through contact or systemic means the test unit consists of 24-well-microtiter plates containing broad bean leaf disks.
The compounds are formulated using a solution containing 75% v/v water and 25% v/v DMSO. Different concentrations of formulated compounds are sprayed onto the leaf disks at 2.5 μl, using a custom built micro atomizer, at two replications.
After application, the leaf disks are air-dried and 5-8 adult aphids placed on the leaf disks inside the microtiter plate wells. The aphids are then allowed to suck on the treated leaf disks and incubated at about 23±1° C. and about 50±5% relative humidity for 5 days. Aphid mortality and fecundity is then visually assessed.

[8] = test system: Rice green leafhopper (Nephotettix virescens); assay: B.1 Rice green leafhopper, sprayed rice seedlings; settings: Rice green leafhopper, Dose 1 ppm, after 72 hours, read-out: Mortality %
Method: B.1 Rice Green Leafhopper (Nephotettix virescens):
(§10) Rice seedlings are cleaned and washed 24 hours before spraying. The active compounds are formulated in 50:50 acetone:water (vol:vol), and 0.1% vol/vol surfactant (EL 620) is added. Potted rice seedlings are sprayed with 5 ml test solution, air dried, placed in cages and inoculated with 10 adults. Treated rice plants are kept at about 28-29° C. and relative humidity of about 50-60%. Percent mortality is recorded after 72 hours.

[9] = test system: Rice brown plant hopper (Nilaparvata lugens); assay: B.2 Rice brown plant hopper, sprayed rice seedlings; settings: Rice brown plant hopper, Dose 1 ppm, after 72 hours, read-out: Mortality %
Method: B.2 Rice Brown Plant Hopper (Nilaparvata lugens):
as §10, with “(vol:vol)” for “(vol:vol),”

[10] = test system: Thrips (Dichromothrips corbetti); assay: B.4 Thrips floral-immersion test; settings: Dose 10 ppm, 72 hours after treatment, read-out: Mortality %
Method: B.4 Thrips (Dichromothrips Corbetti):
Dichromothrips corbetti adults used for bioassay are obtained from a colony maintained continuously under laboratory conditions. For testing purposes, the test compound is diluted in a 1:1 mixture of acetone:water (vol:vol), plus 0.01% vol/vol Alkamuls® EL 620 surfactant.
Thrips potency of each compound is evaluated by using a floral-immersion technique. Plastic petri dishes are used as test arenas. All petals of individual, intact orchid flowers are dipped into treatment solution and allowed to dry. Treated flowers are placed into individual petri dishes along with about 20 adult thrips. The petri dishes v then covered with lids. All test arenas are held under continuous light and a temperature of about 28° C. for duration of the assay. After 3 days, the numbers of live thrips are counted on each flower, and along inner walls of each petri dish. The percent mortality is recorded 72 hours after treatment.

[11] = test system: boll weevil (Anthonomus grandis); assay: Test 9 boll weevil, insect diet with eggs (mixtures)
Method: as §7, §8, §3, §9

[12] = test system: tobacco budworm (Heliothis virescens); assay: Test 10 tobacco budworm, insect diet with eggs (mixtures); settings: use rate 2500 ppm
Method: as §5
The compounds or mixtures were formulated using a solution containing 75% water and 25% DMSO. Different concentrations of formulated compounds or mixtures were sprayed onto the insect diet at 10 μl, using a custom built micro atomizer, at two replications.
as §3, §6

[13] = test system: brown planthopper (Nilaparvata lugens); assay: Test 6 brown planthopper, foliar spray (mixtures); settings: Table 6.1, after 7 days, solo application Pymetrozine, use rate 300 ppm
Method: For evaluating control of brown planthopper (Nilaparvata lugens) by foliar spray method. Clean potted rice seedlings with upper leaf portion cut are properly labeled. Placed three potted rice plants per treatment concentration/combination on top of the rotating disc (270 mm) and sprayed with the 12 mL spray solution. Treated plants are allowed to air-dry in the laboratory for about an hour. After air-drying, covered each treated rice plant. Each treated plant was infested with brown planthoppers using a suction vacuum. Plants are maintained at 27° C.±1° C., 50±5% RH and 24 hours light conditions in a holding room. Percent mortality is recorded 7 days after infestation by counting both the dead and alive brown planthoppers on the plants and on the water.

CC1(C)C(C=C(Cl)Cl)C1C(=O)OC(C#N)c1cccc(Oc2ccccc2)c1 (stereo not drawn) [Alpha-Cypermethrin, alpha-cypermethrin, reference compound]
Average control % ([1]; Table 2.6, solo application Alpha-Cypermethrin, use rate 10 ppm): 0%
Average control % ([2]; Table 4.2, solo application Alpha-Cypermethrin, use rate 2 ppm): 50%

CC(C)N1C(=O)N(c2ccccc2)CS/C1=N\C(C)(C)C [Buprofezin, buprofezin, reference compound]
Average control % ([3]; Table 11.2, solo application Buprofezin): 50%

C[C@@H](NC(=O)C(C#N)C(C)(C)C)c1ccc(Cl)cc1Cl (stereo partly shown) [Dicyclomet, dicyclomet, reference compound]
Average control % ([4]; Table 8.2, solo application Dicyclomet, use rate 2500 ppm): 0%

N#CCNC(=O)c1cnccc1C(F)(F)F [Flonicamid, flonicamid, reference compound]
Average control % ([1]; Table 2.5, solo application Flonicamid, use rate 2 ppm): 0%

O=C(NC(=O)c1c(F)cccc1F)Nc1ccc(Oc2ccc(C(F)(F)F)cc2Cl)cc1F [Flufenoxuron, flufenoxuron, reference compound]
Average control % ([1]; Table 2.2, solo application Flufenoxuron, use rate 0.8 ppm): 0%
Average control % ([5]; Table 3.1, solo application Flufenoxuron, use rate 0.8 ppm): 0%

CON=CNC(=O)c1ccc(C2=NOC(c3cc(Cl)cc(Cl)c3)(C(F)(F)F)C2)cc1C (stereo not shown) [Fluxametamide, fluxametamide, reference compound]
Average control % ([5]; Table 3.3, solo application Fluxametamide, use rate 0.4 ppm): 25%

Cc1nn(C)c(Cl)c1C(=O)Nc1cccc2c1C(C)OC2(C)C (stereo not shown) [Furametpyr, furametpyr, reference compound]
Average control % ([6]; Table 7.1, solo application Furametpyr): 0%

C[n+]1c([O-])c(-c2ccccc2)c(=O)n2c1SC[C@H]2c1cnc(Cl)s1 [I-S-1, S-3-(2-chlorothiazol-5-yl)-8-methyl-7-oxo-6-phenyl-2,3-dihydrothiazolo[3,2-a] pyrimidin-8-ium-5-olate]
mortality at 1 ppm [7]: 0%
mortality at 1 ppm [8]: 0%
mortality at 1 ppm [9]: 0%
mortality at 10 ppm [10]: 0%

COC(=O)N(C(=O)N1CO[C@@]2(C(=O)OC)Cc3cc(Cl)ccc3C2=N1)c1ccc(OC(F)(F)F)cc1 [Indoxacarb, indoxacarb, reference compound]
Average control % ([1]; Table 2.4, solo application Indoxacarb, use rate 2 ppm): 0%

COCC(=O)N(c1c(C)cccc1C)C(C)C(=O)OC (stereo not shown) [Metalaxyl, metalaxyl, reference compound]
Average control % ([6]; Table 7.2, solo application Metalaxyl): 0%
Average control % ([11]; Table 9.2, solo application Metalaxyl, use rate 500 ppm): 0%

Cc1nn(C)c(F)c1C(=O)Nc1ccccc1C(C)CC(C)C (stereo not shown) [Penflufen, penflufen, reference compound]
Average control % ([11]; Table 9.1, solo application Penflufen, use rate 2500 ppm): 0%

C=CCOC1=NS(=O)(=O)c2ccccc21 [Probenazole, probenazole, reference compound]
Average control % ([4]; Table 8.1, solo application Probenazole, use rate 500 ppm): 0%
Average control % ([12]; Table 10.1, solo application Probenazole): 0%

CC1=NNC(=O)N(/N=C/c2cccnc2)C1 [Pymetrozine, pymetrozine, reference compound]
Average control % ([2]; Table 4.1, solo application Pymetrozine, use rate 10 ppm): 0%
Average control % [13]: 26%

O=C1CCc2cccc3c2N1CC3 [Pyroquilon, pyroquilon, reference compound]
Average control % ([12]; Table 10.2, solo application Pyroquilon): 0%

C[Si](C)(C)CC(O)(Cn1cncn1)c1ccc(F)cc1 (stereo not shown) [Simeconazol, simeconazole, reference compound]
Average control % ([3]; Table 11.1, solo application Simeconazol): 0%

O=c1c(-c2cccc(C(F)(F)F)c2)c([O-])[n+](Cc2cncnc2)c2ccccn12 [Triflumezopyrim, triflumezopyrim, reference compound]
Average control % ([1]; Table 2.3, solo application Triflumezopyrim, use rate 0.4 ppm): 0%

spinosad [reference compound]
Average control % ([1]; Table 2.1, solo application Spinosad, use rate 4 ppm): 0%

From patent publication US11578083B2, “Pyrimidinium compounds and their mixtures for combating animal pests” (BASF SE, priority 2017, dated 2023)
